Assay results from the supplement of paper PMC3493320.

These compounds were tested on NCI-H295R (assay: IC50 (antiproliferative, ATP content)). Conditions: 48 h.
How it was run: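 Adrenocortical carcinoma cells (1500 per well) were seeded in serum-free ITS-supplemented DMEM in 1536-well plates and cultured overnight. Library compounds were then pin-transferred at 8 final concentrations from 0.6 nM to 46 µM, and plates were kept 48 h at 37 °C, 5% CO2. ATP was read as CellTiter-Glo luminescence after 20 min at room temperature and normalised to vehicle (0%) and positive control (100% inhibition). IC50 came from four-parameter logistic fits; compounds with no concentration response were recorded as above the top dose.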

Row | SMILES | IC50 [µM]
1 | O=NN(CCCl)C(=O)NC1CCCCC1 | > 46
2 | C[N@@+]1([O-])[C@@H]2CC[C@H]1C[C@@H](OC(=O)C(CO)c1ccccc1)C2 (stereo partly drawn) | > 46
3 | NCCCC(=O)O | > 46
4 | CN1C(=O)CC(=O)N(c2ccccc2)c2cc(Cl)ccc21 | > 46
5 | c1ccc2sc(SNC3CCCCC3)nc2c1 | > 46
6 | CC(C)CC(N(C)C)C1(c2ccc(Cl)cc2)CCC1.Cl (stereo not drawn) | > 46
7 | CC(C)[C@H](CC)CC[C@@H](C)[C@H]3CC[C@H]2[C@@H]4C\C=C1\C[C@@H](O)CC[C@]1(C)[C@H]4CC[C@@]23C | > 46
8 | CS(=O)(=O)O.N[C@@H]1[C@H]2CN(c3nc4c(cc3F)c(=O)c(C(=O)O)cn4-c3ccc(F)cc3F)C[C@@H]12 | > 46
9 | CCNCC.O=S(=O)(O)c1cc(O)ccc1O | > 46
10 | C[Se]CC[C@H](N)C(=O)O | > 46
11 | CN(C)C(Cc1ccccc1)c1ccccc1 (stereo not drawn) | > 46
12 | C[N+](C)(C)CCCCCCCCCC[N+](C)(C)C.[Br-].[Br-] | > 46
13 | C[S+](C)CCC(N)C(=O)O.[Cl-] (stereo not drawn) | > 46
14 | C[N+]12CCC(CC1)C(OC(=O)C(O)(c1ccccc1)c1ccccc1)C2.[Br-] (stereo not drawn) | > 46
15 | CC(=O)c1ccc2c(c1)N(CCCN(C)C)c1ccccc1S2.O=C(O)/C=C/C(=O)O | > 46
16 | C[C@@H]1CC[C@@]2(OC1)O[C@H]1C[C@H]3[C@@H]4CC[C@H]5C[C@@H](O)CC[C@]5(C)[C@H]4CC(=O)[C@]3(C)[C@H]1[C@@H]2C | > 46
17 | Clc1cccc(N2CCNCC2)c1 | > 46
18 | CCOc1cc(N)c(Cl)cc1C(=O)NCC1CN(Cc2ccc(F)cc2)CCO1.O=C(O)CC(O)(CC(=O)O)C(=O)O (stereo not drawn) | > 46
19 | COCC(=O)N(c1c(C)cccc1C)C(C)C(=O)OC (stereo not drawn) | > 46
20 | CNC1(C)C2CCC(C2)C1(C)C (stereo not drawn) | > 46
21 | O=C([C@@H]([C@]4=CC=CC=C4)CO)O[C@@H]2C[C@@H]3[C@H]1O[C@H]1[C@@H]([N@+](C)3C)C2 | > 46
22 | OC(c1ccccc1)(c1ccccc1)C1CN2CCC1CC2 (stereo not drawn) | > 46
23 | CC(=O)[C@H]1CC[C@H]2[C@@H]3CC[C@H]4C[C@H](O)CC[C@]4(C)[C@H]3C(=O)C[C@]12C | > 46
24 | O=C1NCCN1c1ncc([N+](=O)[O-])s1 | > 46
25 | CN(C)CCc1ccc(O)cc1 | > 46
26 | ClC3=C(C=CC5=C3)OC1=CC([C@@](C(N[C@@](C8=CC%11=C(O)C=C8)([H])C(N[C@H]([C@](N[C@@H]([C@@](O)=O)C%12=C%11C(O[C@H]%13O[C@H](CO)[C@@H](O)[C@H](O)[C@@H]%13O)=CC(O)=C%12)=O)[C@@H]5O[C@@]6([H])[C@H](NC(C)=O)[C@@H](O)[C@H](O)[C@@H](CO)O6)=O)=O)([H])NC([C@@](C9=CC(O)=CC(OC%10=C(O)C=CC([C@@H]%14N)=C%10)=C9)([H])NC([C@H](NC%14=O)C7)=O)=O)=CC(OC4=CC=C7C=C4Cl)=C1O[C@H]2[C@H](NC(CC\C=C/CCCCC)=O)[C@@H](O)[C@H](O)[C@@H](CO)O2 | > 46

Row | SMILES | IC50 [µM]
27 | O=S(=O)(O)NC1CCCCC1 | > 46
28 | Cc1ccccc1 | > 46
29 | O=[N+]([O-])O[C@@H]1CO[C@H]2[C@@H]1OC[C@@H]2O | > 46
30 | CCCCCC(N)=O | > 46
31 | CC(C)c1ncc([N+](=O)[O-])n1C | > 46
32 | OCC1(CO)COC(C(Cl)(Cl)Cl)OC1 | > 46
33 | CC1=C2[C@H]3OC(=O)[C@@H](C)[C@@H]3CC[C@@]2(C)C=CC1=O | > 46
34 | C[C@H](O)CN(C)C | > 46
35 | CCOC(=O)c1ccccc1C(=O)OCC | > 46
36 | O=C(C1=C2CCCC1)N(COC([C@H]3C([C@@H]3/C=C(C)\C)(C)C)=O)C2=O | > 46
37 | CC[N+]1(C)CCCC(OC(=O)C(O)(c2ccccc2)c2ccccc2)C1.[Br-] (stereo not drawn) | > 46
38 | ClC(Cl)Cl | > 46
39 | O=CCCCC=O | > 46
40 | CCCCCCCCCCC(CO)CCCCCCCC (stereo not drawn) | > 46
41 | O=C(O)/C=C\C(=O)O.c1ccc2nc(N3CCNCC3)ccc2c1 | > 46
42 | O=C(O)C(Cl)(Cl)Cl | > 46
43 | COc1cc2c(cc1OC)[C@@H](c1ccccc1)CN(C)CC2.O=C(O)/C=C\C(=O)O | > 46
44 | CC[N+](C)(C)Cc1ccccc1Br.Cc1ccc(S(=O)(=O)[O-])cc1 | > 46
45 | CC(=O)NCCCS(=O)(=O)[O-].CC(=O)NCCCS(=O)(=O)[O-].[Ca+2] | > 46
46 | Cl.NC1C[C@H]1c1ccccc1 (stereo partly drawn) | > 46
47 | COc1cc2c(cc1OC)[C@@H](Cc1cc(OC)c(OC)c(OC)c1)[N+](C)(CCCOC(=O)CC/C=C/CCC(=O)OCCC[N+]1(C)CCc3cc(OC)c(OC)cc3[C@H]1Cc1cc(OC)c(OC)c(OC)c1)CC2.[Cl-].[Cl-] (stereo partly drawn) | > 46
48 | CN1C[C@H](C(=O)N[C@]2(C)O[C@@]3(O)[C@@H]4CCCN4C(=O)[C@H](Cc4ccccc4)N3C2=O)C[C@@H]2c3cccc4[nH]cc(c34)C[C@H]21 | > 46
49 | C1CCc2nnnn2CC1 | > 46
50 | O=C(O)CCCc1ccc(N(CCCl)CCCl)cc1 | > 46
51 | C[N+]1(CCCCC[N+]2(C)CCCC2)CCCC1.O=C([O-])[C@H](O)[C@@H](O)C(=O)O.O=C([O-])[C@H](O)[C@@H](O)C(=O)O | > 46

The next lines start with the values.

Row | IC50 [µM] | SMILES
52 | > 46 | Cc1ccnc(NS(=O)(=O)c2ccc(N)cc2)n1
53 | > 46 | Cn1cc(NC(=O)c2cc(NC(=O)c3cc(NC=O)cn3C)cn2C)cc1C(=O)NCCC(=N)N
54 | > 46 | Cl.Nc1ccc(/N=N/c2ccccc2)c(N)n1
55 | > 46 | CCNC(=O)NCc1cccc(Cl)c1
56 | > 46 | Cc1ccccc1/N=N/c1ccc(/N=N/c2c(O)ccc3ccccc23)c(C)c1
57 | > 46 | COc1ccccc1OCC(O)CO (stereo not drawn)
58 | > 46 | CC(C)(C)c1ccc2c(S(=O)(=O)[O-])c(C(C)(C)C)ccc2c1.[Na+]
59 | > 46 | CCOc1cc(CC(=O)N[C@@H](CC(C)C)c2ccccc2N2CCCCC2)ccc1C(=O)O
60 | > 46 | C[C@]12CC[C@@H]3c4ccc(O)cc4C[C@@H](CCCCCCCCCS(=O)CCCC(F)(F)C(F)(F)F)[C@H]3[C@@H]1CC[C@@H]2O (stereo partly drawn)
61 | > 46 | [Br-].O.C[N+]2(C1C[C@H](CC2CC1)OC(=O)C(CO)c3ccccc3)C(C)C (stereo not drawn)
62 | > 46 | CC[C@]12CCCN3CCc4c(n(c5ccccc45)[C@@](O)(C(=O)OC)C1)[C@@H]32
63 | > 46 | O=C(O)/C=C/c1ccccc1
64 | > 46 | CCCCCCNC(=O)n1cc(F)c(=O)[nH]c1=O
65 | > 46 | CCN(CC)CCC(=O)N1c2ccccc2Sc2ccc(C(F)(F)F)cc21
66 | > 46 | Cc1ncc(COP(=O)(O)O)c(CN)c1O
67 | > 46 | COc1cc2[nH]c(=O)[nH]c(=O)c2cc1OC
68 | > 46 | CCOc1ccccc1OCCN[C@H](C)Cc1ccc(OC)c(S(N)(=O)=O)c1.Cl
69 | > 46 | O=C(Cn1ccnc1[N+](=O)[O-])NCCO
70 | > 46 | CCCCOCCOCCOCc1cc2c(cc1CCC)OCO2
71 | > 46 | CN(C)CCN(Cc1cccs1)c1ccccn1.Cl
72 | > 46 | C=CCc1ccc(O)c(OC)c1
73 | > 46 | O[C@]([C@H]3CN(CCC3)CC/C=C(C2=C(C)C=CS2)/C1=C(C)C=CS1)=O.Cl
74 | > 46 | OC(=O)[C@@H](C(C)C)N(Cc1ccc(cc1)c2ccccc2C\3=N\N=N/N/3)C(=O)CCCC
75 | > 46 | O.O.Oc1cc(O)cc(O)c1
76 | > 46 | COc1ccc(C(=O)/C(Br)=C\C(=O)O)cc1
77 | > 46 | CCN(CC)CCSC(=O)C(c1ccccc1)c1ccccc1

Row | IC50 [µM] | SMILES
78 | > 46 | C(=Cc1ccncc1)c1ccccc1
79 | > 46 | COc1ccc2cc([C@H](C)C(=O)[O-])ccc2c1.[Na+]
80 | > 46 | CN1CC(=O)N=C1NC(=O)Nc1cccc(Cl)c1
81 | > 46 | Nc1ccc(S(=O)(=O)Nc2ccccn2)cc1
82 | > 46 | CCc1ccc(CCOc2ccc(CC3SC(=O)NC3=O)cc2)nc1.Cl (stereo not drawn)
83 | > 46 | Nc1nc(=O)c2nc(CNc3ccc(C(=O)N[C@@H](CCC(=O)O)C(=O)O)cc3)cnc2[nH]1
84 | > 46 | NS(=O)(=O)c1cc2c(cc1Cl)N=C(CSCc1ccccc1)NS2(=O)=O
85 | > 46 | O=C(OCc1ccccc1)c1ccccc1
86 | > 46 | Cc1cccc(C)c1NC(=O)CC12CCCN1CCC2
87 | > 46 | OCc1ccccc1O
88 | > 46 | C=C[C@H]1CN2CC[C@H]1C[C@H]2[C@H](O)c1ccnc2ccc(OC)cc12
89 | > 46 | Cc1ncc(CO)c(C=O)c1O
90 | > 46 | CCn1cc(C(=O)O)c(=O)c2ccc(C)nc21
91 | > 46 | COc1nccnc1NS(=O)(=O)c1ccc(N)cc1
92 | > 46 | NC(=O)c1cnccn1
93 | > 46 | Nc1ccc(S(=O)(=O)NCc2ccccc2)cc1
94 | > 46 | O=Cc1ccccc1C=O
95 | > 46 | ClC1=CC=C(\C3=C2/CCNCC2)C(CCC4=C3N=CC=C4)=C1
96 | > 46 | O=C(N1C)N[C@](C1=O)([C@@]2=CC=CC=C2)CC
97 | > 46 | CN(C)CC/C=C1C(C=CC=C3)=C3C=CC2=C\1C=CC=C2.Cl
98 | > 46 | O=C(O)COc1ccc(C(=O)c2cccs2)c(Cl)c1Cl
99 | > 46 | CO/N=C(\C(=O)N[C@@H]1C(=O)N2C(C(=O)O)=C(C[N+]3(C)CCCC3)CS[C@H]12)c1csc(N)n1.Cl.O.[Cl-]
100 | > 46 | CC(=O)Oc1cccc(C)c1
101 | > 46 | CCOC(=O)[C@H](CCc1ccccc1)N[C@@H](C)C(=O)N1Cc2ccccc2C[C@H]1C(=O)O.Cl
102 | > 46 | O=C(C3)C(C(O)=CC(O[C@H]4[C@H](O)[C@@H](O)[C@H](O)[C@@H](CO[C@H]5[C@H](O)[C@H](O)[C@@H](O)[C@H](C)O5)O4)=C2)=C2O[C@@H]3[C@@]1=CC(O)=C(OC)C=C1
103 | > 46 | Cc1c(O)c(=O)ccn1C
